Results published in patent US20190091281A1, “DELIVERY PHARMACEUTICAL COMPOSITIONS INCLUDING PERMEATION ENHANCERS” (AQUESTIVE THERAPEUTICS, INC., priority 2017, published 2019).
Several values for one entry are separate records, joined by “and”; a condition that tells them apart may be missing. Equal values may be shown once. Read-outs that look alike come from different tables or passages of the source. Blank lines part the entries; values can stand above or below the compound they belong to.

What was measured:
[1] = test system: frozen buccal tissue; assay: Ex vivo permeation model of octreotide with permeation enhancers (Franz diffusion cell)
Excerpt: The Franz diffusion cell apparatus consists of two chambers separated by a membrane of, for example, animal or human skin. The test product is applied to the membrane via the top chamber. The bottom chamber contains fluid from which samples are taken at regular intervals for analysis to determine the amount of active that has permeated the membrane at set time points.
Applicants performed an ex vivo screening of permeation enhancers of octreotide delivery. Ex vivo porcine tissue was used, with a tissue thickness 300 um, 3 mg of octreotide and a time of up to 6 hours.

[2] = Octreotide compatibility of permeation enhancers (solubility without precipitation)
[3] = Octreotide degradation on buccal tissue with microneedle application; assay type: in vitro ADME; settings: 4 hours at 37 degrees C.
Description: As shown in the Table below, the buccal tissue was subjected to microneedle application (10 times) and incubated with octreotide solution (2 ml, 1 mg/ml) for 4 hours at 37 degrees C.

[4] = test system: buccal tissue; assay: HIFU as physical permeation enhancer, ex vivo permeation through full thickness tissue; assay type: in vitro ADME; settings: HIFU 30 seconds (180 watts, duty cycle 5%, PRF 10 Hz), two hours
Excerpt: In one example, the inventors used High Intensity Focused Ultrasound (HIFU) as physical permeation enhancer. HIFU can have mechanical, cavitational or thermal effects on the tissue depending on the Ultrasound parameters such as intensity, duty cycle, pulse repetition frequency and the exposure time. In this experiment, the buccal tissue was subjected to HIFU for 30 seconds (power of 180 watts, duty cycle 5%, PRF of 10 Hz) octreotide permeation through the tissue was monitored for two hours in the ex vivo permeation model described earlier (except using full thickness tissue which includes connective tissue of the sub-mucosa).

[5] = POC study in mini pigs, octreotide solution on buccal/sublingual mucosa after microneedles; assay type: in vivo; settings: pig, blood, iv, 100 ug, 100 μg I.V.
[6] = as above; assay type: in vivo; settings: pig, blood; for AUC / Cmax / bioavailability: 12 mg
Excerpt: Solutions were placed after scraping off mucin using a spatula and then treating the area with microneedles (750 um for buccal and 500 um for sublingual). Methocel (40% in water was used as a glue to attach the holder keeping the solution on to the tissue. The test material was colored so that any loss of drug during the experimental set up could be easily monitored.

[7] = octreotide flux, enhancer 10 Wt %, frozen buccal tissue 300 um
[8] = octreotide permeation, 10% w/w, Octreotide soluble after vigorous stirring
[9] = 10% w/w, Octreotide soluble after vigorous stirring
[10] = 12 mg solution with 5 wt % DDTMAB applied to disrupted buccal mucosa
[11] = 12 mg with 5 wt % DDTMAB applied to disrupted sublingual mucosa

Average flux ([1]; pig, 5 Wt %): 0.08 ug/cm2*min
Compound: CN1CCCC1=O [1-Methyl 2-Pyrrolidone]

Permeation Ranking 0-1-2-3 None-Low-Med-High ([1]; pig): 1
Average flux ([1]; pig, 10 Wt %): 0.10 ug/cm2*min
Compound: O=C(O)CN(CCN(CC(=O)O)CC(=O)O)CC(=O)O [EDTA]

Permeation Ranking 0-1-2-3 None-Low-Med-High [1]: 0
Compound: O=C(O)CN(CCOCCOCCN(CC(=O)O)CC(=O)O)CC(=O)O [EGTA]

biodegradability, quantified by analysis of glycine betaine (biological media (plasma, esterase solution, simulated intestinal fluid, tissue homogenate), 37 degrees C.): highly biodegradable
degradability in acidic environment (simulated gastric fluid (pepsin/low pH)): not degradable
Average flux [1]: 3.14 ug/cm2*min
flux [1]: 3-3.5 μg/cm^2*min
Compound: CCCCCCCCCCCCOC(=O)C[N+](C)(C)C [Glycine Betaine Ester C12]

permeation activity [1]: not active
Compound: CCCCCC[N+](C)(C)C.[Br-] [Hexyltrimethylammonium bromide]

Average flux [1]: 0.10 ug/cm2*min
Compound: CCCCCCCCN1CCCC1=O [Octyl pyrroldone]

permeation activity [1]: not active
Compound: CCCCCCCC[N+](C)(C)C.[Br-] [Octyltrimethylammonium bromide]

Permeation Ranking 0-1-2-3 None-Low-Med-High ([1]; pig): 0
Average flux ([1]; pig, 5 Wt %): 0.01 ug/cm2*min
Compound: CCCCCCCC/C=C\CCCCCCCC(=O)O [Oleic acid]

Permeation Ranking 0-1-2-3 None-Low-Med-High [1]: 1
Compound: CCCCCCCCCCCCCCO[C@@H]1O[C@H](CO)[C@@H](O[C@H]2O[C@H](CO)[C@@H](O)[C@H](O)[C@H]2O)[C@H](O)[C@H]1O [TDM]

Permeation Ranking 0-1-2-3 None-Low-Med-High [1]: 3
Compound: Benzalkonium chloride [Benzalkonium chloride (BAC)]

Average flux [1]: 0.15 ug/cm2*min
Compound: Hydroxypropylcyclodextrin

More lines, now with the values behind:

Compound: O=CC=Cc1ccccc1 [Cinnamaldehyde]
Average flux ([1]; pig, 1 Wt %): 0.00 ug/cm2*min
Average flux ([1]; pig, 3 Wt %): 0.00 ug/cm2*min

Compound: CO[C@H]1CO[C@H]2[C@@H]1OC[C@H]2OC [Dimethyl isosorbide]
Average flux ([1]; octreotide flux, enhancer 5 Wt %, frozen buccal tissue 300 um): 0.07 ug/cm2*min

Compound: CCCCCCCCCCCC[N+](C)(C)C.[Br-] [Dodecyltrimethylammonium bromide]
permeation activity ([1]; aliphatic trimethyl-ammonium bromide surfactants at 1 wt % (FIG. 5)): most active
Octreotide Compatibility [2]: Yes
compatibility with octreotide in terms of solubility without causing precipitation [2]: improved compatibility

Compound: C[C@H](CCC(=O)NCC(=O)[O-])[C@H]1CC[C@H]2[C@@H]3CC[C@@H]4C[C@H](O)CC[C@]4(C)[C@H]3C[C@H](O)[C@]12C.[Na+] [GDC, Sodium glycodeoxycholate]
Average flux ([1]; octreotide flux, enhancer 0.1 Wt %, frozen buccal tissue 300 um): 0.14 ug/cm2*min
Average flux [1, 7]: 0.85 ug/cm2*min
Permeation Ranking 0-1-2-3 None-Low-Med-High [1, 8]: 2
Octreotide Compatibility [2, 9]: Yes

Compound: CCCCCCCCCCCCCCCCOC(=O)C[N+](C)(C)C [Glycine Betaine Ester C16]
Average flux [1]: 0.69 ug/cm2*min
flux [1]: 3-3.5 μg/cm^2*min

Compound: CCCCCCCC/C=C\CCCCCCCCOC(=O)C[N+](C)(C)C [Glycine Betaine Ester C18 (Oleyl)]
Average flux [1]: 0.51 ug/cm2*min
flux [1]: 3-3.5 μg/cm^2*min

Compound: CCCCCCCCCCCCCCCC[N+](C)(C)C.[Br-] [Hexadecyltrimethylammonium bromide]
permeation activity [1]: most active
Permeation Ranking 0-1-2-3 None-Low-Med-High ([1]; pig): 3
Average flux ([1]; pig, 1 Wt %): 1.23 ug/cm2*min
compatibility with octreotide in terms of solubility without causing precipitation [2]: improved compatibility

Compound: CCCCCCCCCCCCCCCCOP(=O)([O-])OCC[N+](C)(C)C [Miltefosine (Hexadecyl Phosphatidyl Choline), reference compound]
Average flux [1]: 0.14 ug/cm2*min

Compound: C[C@@H](O)[C@@H]1NC(=O)[C@H](CCCCN)NC(=O)[C@@H](Cc2c[nH]c3ccccc23)NC(=O)[C@H](Cc2ccccc2)NC(=O)[C@@H](NC(=O)[C@H](N)Cc2ccccc2)CSSC[C@@H](C(=O)N[C@H](CO)[C@@H](C)O)NC1=O [Octreotide]
remaining at 4 h, 1 mg/ml ([3]; + Tissue with microneedle (10 times)): 98%
remaining at 4 h, 1 mg/ml ([3]; buccal tissue incubated with octreotide solution, + Tissue): 86%
remaining at 4 h, 1 mg/ml ([3]; control without tissue, control, octreotide solution 2 ml, 1 mg/ml): 100%
flux ([1]; octreotide concentration of 5 mg/ml (FIG. 4)): approximately 0.500 ug/cm2*min
flux ([1]; octreotide concentration of 15-20 mg/ml (FIG. 4)): 2.0-2.5 ug/cm2*min
octreotide permeated through the tissue [4]: ~60 µg

Compound: Cl.NCCCNCCCCNCCCN [Spermine HCl]
Average flux ([1]; pig, 10 Wt %): 0.58 ug/cm2*min

Compound: CCCCCCCCCCCCCCCC[N+](C)(C)C.[Br-] [drawing 5]
Avg Flux ([1]; pig, 1 wt %): 1.31 (1 wt %) μg/cm^2*min

Compound: C[C@@H](O)[C@@H]1NC(=O)[C@H](CCCCN)NC(=O)[C@@H](Cc2c[nH]c3ccccc23)NC(=O)[C@H](Cc2ccccc2)NC(=O)[C@@H](NC(=O)[C@H](N)Cc2ccccc2)CSSC[C@@H](C(=O)N[C@H](CO)[C@@H](C)O)NC1=O [octreotide acetate]
AUC [5]: 0.0148 µg·h/mL
Cmax [5]: 0.031 µg/mL
Tmax [5]: 4 min
Tmax [6, 10]: 3 h
AUC [6, 10]: 0.0198 µg·h/mL
Cmax [6, 10]: 0.0042 µg/mL
bioavailability [6, 10]: 1.11%
AUC [6, 11]: 0.106 µg·h/mL
Cmax [6, 11]: 0.0256 µg/mL
bioavailability [6, 11]: 5.97%

Compound: Dimethyl-cyclodextrin
Average flux [1]: 0.53 ug/cm2*min
Permeation Ranking 0-1-2-3 None-Low-Med-High [1]: 1

Compound: Sodium Deoxycholate [DOC]
Average flux [1, 7]: 0.49 ug/cm2*min and 0.41 ug/cm2*min
Permeation Ranking 0-1-2-3 None-Low-Med-High [1, 8]: 1
Octreotide Compatibility [2, 9]: Yes
